# Source: ChEMBL document CHEMBL1201862, “PubChem BioAssay data set” (2004)
# Calls of active or inactive are those of the source.
# Assays:
# [1] = biological target: Adenosylmethionine-8-amino-7-oxononanoate aminotransferase (Mycobacterium tuberculosis, UniProt P9WQ81); assay: Mycobacterium tuberculosis BioA enzyme inhibitor Measured in Biochemical System Using Plate Reader - 2163-02_Inhibitor_Dose_CherryPick_Activity.; type: functional, Mycobacterium tuberculosis UT205
# Large T antigen = Large T antigen (Simian virus 40, UniProt P03070); type: functional, Betapolyomavirus macacae;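 note: Confirmatory-stage PubChem screen for compounds that inhibit SV40 T antigen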
# [2] = biological target: T1, Tyrosine-protein phosphatase non-receptor type 22 (Homo sapiens, UniProt Q9Y2R2); assay: PTPN22 phosphatase inhibition, dose response, selectivity assay for STEP inhibitor project, biochemical (AID 624241); type: functional
# T1 sequence (Q9Y2R2 whole entry): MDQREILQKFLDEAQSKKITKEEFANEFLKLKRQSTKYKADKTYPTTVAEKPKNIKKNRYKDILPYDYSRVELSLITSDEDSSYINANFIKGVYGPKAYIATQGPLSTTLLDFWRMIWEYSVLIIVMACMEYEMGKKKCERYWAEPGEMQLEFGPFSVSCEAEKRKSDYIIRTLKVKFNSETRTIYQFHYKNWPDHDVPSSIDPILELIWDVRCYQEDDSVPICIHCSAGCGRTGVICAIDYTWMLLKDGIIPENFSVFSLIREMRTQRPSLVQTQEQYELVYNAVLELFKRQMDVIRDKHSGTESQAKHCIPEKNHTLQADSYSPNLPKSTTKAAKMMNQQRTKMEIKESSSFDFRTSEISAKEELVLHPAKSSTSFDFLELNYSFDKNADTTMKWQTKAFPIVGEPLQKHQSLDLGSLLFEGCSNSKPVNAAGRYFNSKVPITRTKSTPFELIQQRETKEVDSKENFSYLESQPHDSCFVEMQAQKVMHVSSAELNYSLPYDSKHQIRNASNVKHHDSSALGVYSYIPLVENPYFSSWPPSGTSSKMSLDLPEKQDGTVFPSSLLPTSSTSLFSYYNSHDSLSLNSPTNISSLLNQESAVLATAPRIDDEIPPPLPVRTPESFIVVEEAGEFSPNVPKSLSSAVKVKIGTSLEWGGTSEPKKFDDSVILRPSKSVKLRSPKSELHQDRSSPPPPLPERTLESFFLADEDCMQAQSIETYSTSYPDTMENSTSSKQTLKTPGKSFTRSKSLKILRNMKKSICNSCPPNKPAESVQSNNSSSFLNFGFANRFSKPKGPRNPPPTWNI
# [3] = biological target: Dual specificity protein phosphatase 3 (Homo sapiens, UniProt P51452); assay: VHR phosphatase inhibition, dose response, selectivity assay for STEP inhibitor project, biochemical (AID 602374); type: functional; details: read-out: IC50_Mean
# [4] = biological target: Bifunctional protein GlmU (Mycobacterium tuberculosis, UniProt P9WMN3); assay: Inhibitors of Mycobacterial Glucosamine-1-phosphate acetyl transferase (GlmU). Secondary screen.; parameters: species or system Mycobacterium tuberculosis H37Rv
# [5] = biological target: Tyrosine-protein phosphatase non-receptor type 11 (Homo sapiens, UniProt Q06124); assay: SHP2 phosphatase inhibition, dose response, selectivity assay for STEP inhibitor project, biochemical (AID 602367); type: functional; details: read-out: IC50_Mean
# Protein Wnt-3a = Protein Wnt-3a (Mus musculus, UniProt P27467); assay: Wnt3a-driven reporter signaling inhibition, dose response, selectivity assay for Gli-SUFU antagonist project, Wnt-LIGHT cells, luminescence (AID 651570); type: functional; details: read-out: IC50_Mean;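 note: Wnt-LIGHT reporter cells stimulated with conditioned medium from Wnt3a-producing cells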
# [6] = AlphaScreen signal interference compounds, dose response, artefact control for ARNT-TACC3 interaction inhibitor project, biochemical, luminescence, cherry-pick (AID 651705); type: functional;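 note: AlphaScreen bead proximity signal that flags compounds interfering with the detection technology; potency reflects signal decrease which marks the compound as an assay artifact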
# HEK293 [7] = assay: cells; type: functional, cell-based; details: Homo sapiens
# HEK293 [8] = assay: cells; type: functional, cell-based; details: Homo sapiens; remark: listed apart in the source
# HEK293 [9] = assay: NOD2 signaling inhibitors in MDP-stimulated cells, cell-based, uHTS, luminescence (AID 2001); type: functional; details: Homo sapiens
# [10] = biological target: Mitochondrial peptide methionine sulfoxide reductase (Bos taurus, UniProt P54149); assay: Absorbance-based biochemical high throughput dose response assay for activators of Methionine sulfoxide reductase A (MsrA).; type: functional
# HEK293 [11] = assay: NOD1 signaling inhibitors, primary screen, cell-based, luminescence, uHTS (AID 1578); type: functional; details: Homo sapiens
# [12] = biological target: Nucleotide-binding oligomerization domain-containing protein 2 (Homo sapiens, UniProt Q9HC29); assay: NOD2 signaling inhibitors, cell-based, luminescence, uHTS, HEK293 (AID 1566); type: functional
# HEK293 [13] = assay: cells; type: functional, cell-based; details: Homo sapiens; remark: listed apart in the source
# Interleukin-8 [14] = biological target: T2, Interleukin-8 (Homo sapiens, UniProt P10145); assay: Dose Response confirmation of uHTS small molecule hits for cystic fibrosis induced NFkb Inhibitors in a TNFa-induced IL8 counterscreen.; type: functional; details: read-out: IC50_Mean
# T2 sequence (P10145 whole entry): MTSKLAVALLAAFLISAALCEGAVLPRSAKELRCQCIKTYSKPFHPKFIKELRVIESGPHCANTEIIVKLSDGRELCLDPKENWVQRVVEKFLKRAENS
# Interleukin-8 [15] = biological target: T2, Interleukin-8; assay: Dose Response confirmation of uHTS small molecule hits for cystic fibrosis induced NFkb Inhibitors in a PAF-induced IL8 counterscreen.; type: functional; details: read-out: IC50_Mean
# [16] = biological target: T3, ATP-dependent translocase ABCB1 (Homo sapiens, UniProt P08183); assay: ABCB1 efflux inhibitor potency, dose response, Jurkat-DNR cells, JC-1, flow cytometry, set 2 (AID 504569); type: functional; details: read-out: EC50_MICROM_;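 note: potency of pump inhibitors that raise cellular JC-1 green fluorescence up to the nicardipine level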
# T3 sequence (P08183 whole entry): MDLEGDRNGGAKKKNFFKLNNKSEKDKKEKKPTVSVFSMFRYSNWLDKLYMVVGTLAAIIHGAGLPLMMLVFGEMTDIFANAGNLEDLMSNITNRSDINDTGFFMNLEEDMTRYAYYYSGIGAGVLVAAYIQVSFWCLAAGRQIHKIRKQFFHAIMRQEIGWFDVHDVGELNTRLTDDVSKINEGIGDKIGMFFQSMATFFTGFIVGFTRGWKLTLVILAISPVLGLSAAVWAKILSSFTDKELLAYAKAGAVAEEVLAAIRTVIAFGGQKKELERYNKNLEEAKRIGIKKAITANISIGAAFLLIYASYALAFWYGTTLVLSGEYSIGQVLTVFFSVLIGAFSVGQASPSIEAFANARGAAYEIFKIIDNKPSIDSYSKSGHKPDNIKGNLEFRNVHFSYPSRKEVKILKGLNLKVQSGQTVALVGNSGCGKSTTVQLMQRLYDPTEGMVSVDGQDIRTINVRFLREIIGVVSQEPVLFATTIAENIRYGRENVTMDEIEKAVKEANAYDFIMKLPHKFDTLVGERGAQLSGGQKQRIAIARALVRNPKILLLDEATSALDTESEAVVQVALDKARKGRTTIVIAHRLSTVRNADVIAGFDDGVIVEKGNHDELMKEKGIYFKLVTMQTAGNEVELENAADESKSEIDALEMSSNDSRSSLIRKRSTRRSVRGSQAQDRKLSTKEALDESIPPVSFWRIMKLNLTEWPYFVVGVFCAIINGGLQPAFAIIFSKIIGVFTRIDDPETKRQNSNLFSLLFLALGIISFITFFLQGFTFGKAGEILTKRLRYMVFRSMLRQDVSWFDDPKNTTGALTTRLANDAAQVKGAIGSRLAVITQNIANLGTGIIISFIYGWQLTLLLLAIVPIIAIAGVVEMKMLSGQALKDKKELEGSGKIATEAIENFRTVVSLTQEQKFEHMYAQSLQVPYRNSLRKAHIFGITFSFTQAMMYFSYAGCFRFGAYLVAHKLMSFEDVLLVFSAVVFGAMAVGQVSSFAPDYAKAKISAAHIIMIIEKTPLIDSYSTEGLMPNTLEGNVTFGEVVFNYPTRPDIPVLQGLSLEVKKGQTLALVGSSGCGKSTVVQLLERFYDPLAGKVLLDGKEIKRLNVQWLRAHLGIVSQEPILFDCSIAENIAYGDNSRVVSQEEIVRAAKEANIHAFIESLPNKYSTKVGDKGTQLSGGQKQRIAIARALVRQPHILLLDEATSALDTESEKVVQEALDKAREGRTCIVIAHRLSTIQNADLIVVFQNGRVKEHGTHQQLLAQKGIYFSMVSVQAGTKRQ
# [17] = biological target: T3, ATP-dependent translocase ABCB1; assay: ABCG2 efflux pump inhibitor potency, dose response, Ig-MXP3 cells, JC-1, flow cytometry, set 2 (AID 504566); type: functional; details: read-out: EC50_MICROM_;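 note: flow cytometry median green fluorescence of retained JC-1 dye; potency of efflux pump inhibition measured as rising substrate retention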
# [18] = biological target: T4, Sentrin-specific protease 1 (Homo sapiens, UniProt Q9P0U3); assay: Dose response confirmation of small molecule inhibitors of the catalytic domain of the SUMO protease, SENP1 in a FRET assay.; type: functional; details: read-out: IC50_Mean
# T4 sequence (Q9P0U3 whole entry, the tested form may be a part): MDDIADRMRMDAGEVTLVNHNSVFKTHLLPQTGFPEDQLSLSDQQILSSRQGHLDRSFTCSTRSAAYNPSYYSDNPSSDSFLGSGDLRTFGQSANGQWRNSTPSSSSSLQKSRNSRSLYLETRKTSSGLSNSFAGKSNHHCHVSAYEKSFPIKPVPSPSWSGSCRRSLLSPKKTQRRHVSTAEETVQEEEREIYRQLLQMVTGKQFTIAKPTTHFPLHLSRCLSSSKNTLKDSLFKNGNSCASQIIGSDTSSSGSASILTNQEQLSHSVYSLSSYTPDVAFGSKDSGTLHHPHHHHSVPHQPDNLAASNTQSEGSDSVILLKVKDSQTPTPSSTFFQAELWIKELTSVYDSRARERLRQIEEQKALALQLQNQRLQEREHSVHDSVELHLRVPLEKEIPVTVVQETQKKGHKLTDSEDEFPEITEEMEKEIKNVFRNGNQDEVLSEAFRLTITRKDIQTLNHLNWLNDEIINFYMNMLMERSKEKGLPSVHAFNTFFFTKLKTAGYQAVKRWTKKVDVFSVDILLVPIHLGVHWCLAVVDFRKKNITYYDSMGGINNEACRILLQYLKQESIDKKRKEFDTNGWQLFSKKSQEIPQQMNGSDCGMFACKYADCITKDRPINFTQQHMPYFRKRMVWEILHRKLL
# [19] = biological target: T4, Sentrin-specific protease 1; assay: potency of human SENP1 inhibitors, dose response, biochemical, kinetic FRET (AID 651697); type: functional; details: read-out: IC50_Mean
# [20] = Fluorescence-based cell-based high throughput dose response assay for inhibitors of the interaction of nucleotide-binding oligomerization domain containing 2 (NOD2) and the receptor-interacting serine-threonine kinase 2 (RIPK2).; type: functional; details: Homo sapiens
# [21] = biological target: Photoreceptor-specific nuclear receptor (Homo sapiens, UniProt Q9Y5X4); type: functional, cell-based;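 note: CHO-S cells with Gal4-NCOR and VP16-NR2E3 two-hybrid luciferase reporter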
# Fatty acid synthase [22] = biological target: T5, Fatty acid synthase (Homo sapiens, UniProt P49327); assay: FAS thioesterase domain inhibitors, dose response, biochemical, kinetic fluorescence intensity (AID 624326); type: functional;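 note: rate of fluorescence rise from hydrolysis of a fluorogenic O-methyl fluorescein ester substrate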
# T5 sequence (P49327 whole entry, the tested form may be a part): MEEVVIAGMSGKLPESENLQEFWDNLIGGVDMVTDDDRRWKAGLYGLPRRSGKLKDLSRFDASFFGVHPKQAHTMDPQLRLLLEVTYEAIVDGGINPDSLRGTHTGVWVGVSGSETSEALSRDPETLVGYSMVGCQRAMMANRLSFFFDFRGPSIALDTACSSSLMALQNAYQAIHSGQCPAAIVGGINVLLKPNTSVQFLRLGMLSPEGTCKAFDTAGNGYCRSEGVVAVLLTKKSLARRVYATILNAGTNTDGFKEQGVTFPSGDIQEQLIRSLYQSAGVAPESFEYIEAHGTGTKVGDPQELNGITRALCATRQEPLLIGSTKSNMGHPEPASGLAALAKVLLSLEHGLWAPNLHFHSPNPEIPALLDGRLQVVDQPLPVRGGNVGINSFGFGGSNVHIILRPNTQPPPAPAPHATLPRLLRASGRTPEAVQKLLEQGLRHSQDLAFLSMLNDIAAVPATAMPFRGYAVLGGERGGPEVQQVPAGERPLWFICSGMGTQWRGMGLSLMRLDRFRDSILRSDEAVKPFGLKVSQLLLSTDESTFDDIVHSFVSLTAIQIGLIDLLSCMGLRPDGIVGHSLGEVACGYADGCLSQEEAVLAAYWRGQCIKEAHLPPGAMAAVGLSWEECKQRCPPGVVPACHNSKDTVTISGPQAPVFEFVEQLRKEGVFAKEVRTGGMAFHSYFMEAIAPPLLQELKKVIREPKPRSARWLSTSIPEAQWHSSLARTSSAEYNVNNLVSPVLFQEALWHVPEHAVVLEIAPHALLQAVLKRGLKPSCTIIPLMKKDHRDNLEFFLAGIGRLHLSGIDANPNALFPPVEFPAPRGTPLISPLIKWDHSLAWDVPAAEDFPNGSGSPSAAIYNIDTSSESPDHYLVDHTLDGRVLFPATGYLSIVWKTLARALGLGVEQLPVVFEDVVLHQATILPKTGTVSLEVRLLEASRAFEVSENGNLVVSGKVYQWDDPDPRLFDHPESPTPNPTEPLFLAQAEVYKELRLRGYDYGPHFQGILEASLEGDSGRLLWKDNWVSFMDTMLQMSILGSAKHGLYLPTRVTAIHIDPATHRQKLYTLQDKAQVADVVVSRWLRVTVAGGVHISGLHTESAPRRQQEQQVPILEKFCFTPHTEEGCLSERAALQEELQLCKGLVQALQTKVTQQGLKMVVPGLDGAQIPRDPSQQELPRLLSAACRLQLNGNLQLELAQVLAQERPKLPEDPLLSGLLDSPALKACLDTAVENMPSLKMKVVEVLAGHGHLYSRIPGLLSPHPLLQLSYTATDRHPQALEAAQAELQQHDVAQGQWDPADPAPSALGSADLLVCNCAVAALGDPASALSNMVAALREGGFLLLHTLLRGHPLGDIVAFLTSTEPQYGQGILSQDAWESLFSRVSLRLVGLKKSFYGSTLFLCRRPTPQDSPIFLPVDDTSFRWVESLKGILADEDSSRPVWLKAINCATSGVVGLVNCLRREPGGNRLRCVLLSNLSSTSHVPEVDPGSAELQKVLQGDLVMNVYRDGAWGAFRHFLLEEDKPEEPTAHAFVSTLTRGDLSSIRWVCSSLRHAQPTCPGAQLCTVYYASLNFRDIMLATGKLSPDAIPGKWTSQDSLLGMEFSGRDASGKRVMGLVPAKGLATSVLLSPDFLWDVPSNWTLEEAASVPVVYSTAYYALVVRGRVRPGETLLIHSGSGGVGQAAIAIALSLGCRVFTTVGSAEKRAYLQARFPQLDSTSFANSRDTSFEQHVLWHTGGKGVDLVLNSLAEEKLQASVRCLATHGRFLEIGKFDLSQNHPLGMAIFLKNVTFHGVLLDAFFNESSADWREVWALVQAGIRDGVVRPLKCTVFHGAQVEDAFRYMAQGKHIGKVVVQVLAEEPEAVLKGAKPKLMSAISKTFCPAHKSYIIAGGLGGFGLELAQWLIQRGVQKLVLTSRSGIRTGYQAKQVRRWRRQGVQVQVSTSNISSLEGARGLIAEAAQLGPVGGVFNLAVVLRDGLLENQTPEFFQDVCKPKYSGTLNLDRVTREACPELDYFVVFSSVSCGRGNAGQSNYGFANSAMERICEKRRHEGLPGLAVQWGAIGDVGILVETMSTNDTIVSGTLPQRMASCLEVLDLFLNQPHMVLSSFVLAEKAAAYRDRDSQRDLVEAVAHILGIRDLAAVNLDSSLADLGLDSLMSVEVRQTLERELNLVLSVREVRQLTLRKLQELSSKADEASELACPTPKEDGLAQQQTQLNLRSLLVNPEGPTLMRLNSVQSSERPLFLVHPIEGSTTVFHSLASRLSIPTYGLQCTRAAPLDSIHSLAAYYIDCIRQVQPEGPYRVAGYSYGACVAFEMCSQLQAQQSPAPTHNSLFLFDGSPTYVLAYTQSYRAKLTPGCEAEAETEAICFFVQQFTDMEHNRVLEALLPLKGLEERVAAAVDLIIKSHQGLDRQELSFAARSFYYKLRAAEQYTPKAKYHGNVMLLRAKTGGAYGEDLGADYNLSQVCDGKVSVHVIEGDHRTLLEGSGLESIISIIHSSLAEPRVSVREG
# Fatty acid synthase [23] = biological target: T5, Fatty acid synthase; assay: FAS thioesterase domain inhibitors, dose response, biochemical, endpoint fluorescence intensity, uHTS hits (AID 624327); type: functional;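 note: fluorescence from hydrolysis of an O-methyl fluorescein acyl ester substrate by the enzyme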
# Beta Lactamase = Beta Lactamase (Pseudomonas aeruginosa, UniProt Q932Y6); assay: beta-lactamase reporter inhibitor potency, dose response, artefact control for NOD2-RIPK2 interaction inhibitor project, BLA reporter cells, FRET fluorescence (AID 651552); type: functional, cell-based
# Melanocortin receptor 4 = Melanocortin receptor 4 (Homo sapiens, UniProt P32245); type: functional, cell-based;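 note: Cell-based assay with luminescence read-out, confirmatory dose-response testing for agonist activity of biased ligands at MC4R; human U2OS cells with tagged receptor and beta-arrestin; potency of agonists that increase receptor coupling to beta-arrestin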
# [24] = biological target: Opioid receptors; mu & delta (Homo sapiens, UniProt P41143+P35372); assay: agonists of MOR-DOR heterodimerization, dose response, counter-screen for MC4R biased agonist project, cell-based, luminescence (AID 602264); type: functional
# cells = type: functional
# [25] = THP-1 cell cytotoxicity, dose response, cytotoxicity control for non-replicating M. tuberculosis project (AID 489025); type: functional
# [26] = biological target: T6, Multidrug resistance protein CDR2 (Candida albicans (strain SC5314 / ATCC MYA-2876) (Yeast), UniProt P78595); assay: CaCDR2 efflux pump inhibitors in yeast, dose response, S. cerevisiae AD1-8u, singleplex, Cherry Pick2 set (AID 623994); type: functional; details: read-out: EC50_MICROM
# T6 sequence (P78595 whole entry): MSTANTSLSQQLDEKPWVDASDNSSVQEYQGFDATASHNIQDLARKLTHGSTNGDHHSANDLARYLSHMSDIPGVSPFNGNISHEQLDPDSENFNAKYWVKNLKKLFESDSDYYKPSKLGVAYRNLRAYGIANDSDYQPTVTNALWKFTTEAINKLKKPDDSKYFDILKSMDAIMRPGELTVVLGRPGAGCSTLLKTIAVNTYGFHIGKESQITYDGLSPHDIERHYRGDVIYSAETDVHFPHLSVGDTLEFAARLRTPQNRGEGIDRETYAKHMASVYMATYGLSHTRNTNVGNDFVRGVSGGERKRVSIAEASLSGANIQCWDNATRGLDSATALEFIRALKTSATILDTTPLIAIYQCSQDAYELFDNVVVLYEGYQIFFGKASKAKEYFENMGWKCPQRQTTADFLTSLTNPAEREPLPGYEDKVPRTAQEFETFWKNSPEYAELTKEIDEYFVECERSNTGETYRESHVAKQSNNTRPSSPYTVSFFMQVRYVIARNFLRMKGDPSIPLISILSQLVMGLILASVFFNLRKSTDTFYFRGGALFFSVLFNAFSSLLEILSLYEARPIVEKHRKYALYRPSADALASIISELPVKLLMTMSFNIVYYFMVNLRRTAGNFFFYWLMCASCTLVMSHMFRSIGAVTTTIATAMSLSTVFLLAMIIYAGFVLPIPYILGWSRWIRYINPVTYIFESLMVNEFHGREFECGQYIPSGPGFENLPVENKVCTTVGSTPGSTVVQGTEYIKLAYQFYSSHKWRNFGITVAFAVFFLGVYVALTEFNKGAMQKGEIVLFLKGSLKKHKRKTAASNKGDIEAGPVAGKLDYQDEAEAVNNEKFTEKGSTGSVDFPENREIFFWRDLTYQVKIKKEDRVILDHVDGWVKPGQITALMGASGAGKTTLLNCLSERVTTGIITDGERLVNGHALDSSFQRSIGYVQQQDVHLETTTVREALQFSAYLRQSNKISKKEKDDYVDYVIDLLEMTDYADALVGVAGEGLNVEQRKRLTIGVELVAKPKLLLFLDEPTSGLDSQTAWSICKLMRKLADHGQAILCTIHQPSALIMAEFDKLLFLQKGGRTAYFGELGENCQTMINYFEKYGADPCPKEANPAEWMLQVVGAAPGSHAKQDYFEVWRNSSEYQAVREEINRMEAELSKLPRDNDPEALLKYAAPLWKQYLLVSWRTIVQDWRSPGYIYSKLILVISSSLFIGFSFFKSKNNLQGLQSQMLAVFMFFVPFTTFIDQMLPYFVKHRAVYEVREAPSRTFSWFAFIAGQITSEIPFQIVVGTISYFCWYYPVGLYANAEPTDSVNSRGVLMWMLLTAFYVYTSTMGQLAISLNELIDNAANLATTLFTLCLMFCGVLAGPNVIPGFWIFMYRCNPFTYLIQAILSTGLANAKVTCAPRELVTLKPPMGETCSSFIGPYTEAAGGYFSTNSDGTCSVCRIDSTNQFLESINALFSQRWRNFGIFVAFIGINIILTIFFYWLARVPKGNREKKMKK
# INS1 = assay: beta cell apoptosis inhibitors, cytokine rescue, dose response, luminescence, retest (AID 449756); type: functional, cell-based; details: Rattus norvegicus;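 note: cell death triggered by IL-1 beta plus TNF-alpha plus IFN-gamma mixture; protective hits raise ATP signal compared with cytokine alone wells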
# [27] = NIH-3T3 fibroblast cytotoxicity, dose response, cytotoxicity control, cell-based, fluorescence, Alamar Blue, secondary assay (AID 2327); type: functional;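 note: NIH-3T3 mouse fibroblasts cultured with fluconazole at 8 µg/mL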
# [28] = biological target: T7, Ubiquitin-conjugating enzyme E2 N (Homo sapiens, UniProt P61088); type: functional;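 note: Dose-response confirmation in a TR-FRET assay detecting UBC13-driven polyubiquitin chain formation, inhibition measured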
# T7 sequence (P61088 whole entry): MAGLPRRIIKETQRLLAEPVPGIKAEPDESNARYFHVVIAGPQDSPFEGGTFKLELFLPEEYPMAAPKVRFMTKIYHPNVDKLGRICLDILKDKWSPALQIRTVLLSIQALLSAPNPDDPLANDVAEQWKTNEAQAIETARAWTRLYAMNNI
# [29] = C. albicans growth with fluconazole, confirmation, fluorescence, retest (AID 2467); type: functional, cell-based
# Adenosylmethionine-8-amino-7-oxononanoate aminotransferase, sequence (P9WQ81 whole entry): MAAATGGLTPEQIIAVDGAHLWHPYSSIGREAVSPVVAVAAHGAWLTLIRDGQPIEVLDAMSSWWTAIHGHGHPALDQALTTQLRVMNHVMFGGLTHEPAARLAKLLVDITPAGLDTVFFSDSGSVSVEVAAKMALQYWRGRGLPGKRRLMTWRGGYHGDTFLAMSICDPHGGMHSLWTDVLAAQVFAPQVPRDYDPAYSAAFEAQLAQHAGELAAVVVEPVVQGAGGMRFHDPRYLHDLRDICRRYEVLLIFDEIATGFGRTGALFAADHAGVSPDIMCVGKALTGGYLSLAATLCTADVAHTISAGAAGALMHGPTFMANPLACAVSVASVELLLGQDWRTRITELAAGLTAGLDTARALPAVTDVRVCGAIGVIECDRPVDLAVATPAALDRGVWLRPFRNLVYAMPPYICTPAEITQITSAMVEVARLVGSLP
smiles,measurement,setting,value
CN1CCCC1CCOC(C)(c1ccccc1)c1ccc(Cl)cc1 (stereo not given),AC50,[1],10.6 µM (active)
O=C(O)C(S)C(S)C(=O)O (stereo not given),IC50,Large T antigen,75.9 µM (active)
same,IC50,[2],4.48 µM (active)
same,IC50,[3],3.22 µM (active)
same,IC50,[4],181 µM (active)
same,IC50,[5],0.518 µM (active)
CC(C)(C)[C@H]1COC(=O)[C@H](NC(=O)OCC2c3ccccc3-c3ccccc32)C/C=C\C[C@@H](CC(=O)N[C@@H](CO)Cc2ccccc2)C(=O)N1,IC50,Protein Wnt-3a,18.6 µM (active)
COc1ccccc1-c1nnc(NC(=O)c2cccc(N3C(=O)CCC3=O)c2)o1,AC50,[6],133 µM (active)
Cc1ccc(NS(=O)(=O)c2ccc3c(c2)C(=O)c2ccccc2C3=O)c(C)c1,IC50,HEK293 [7],> 20 µM (inactive)
same,IC50,HEK293 [8],> 20 µM (inactive)
same,IC50,HEK293 [9],6.68 µM (active)
same,EC50,[10],> 104 µM (inactive)
same,EC50,HEK293 [11],6.34 µM (active)
same,EC50,[12],> 20 µM (inactive)
same,IC50,HEK293 [13],7.68 µM (active)
COC(=O)N1C(=O)[C@@](c2ccccc2)(C(C)C)N1C(=O)OC,IC50,Interleukin-8 [14],2.15 µM (active)
same,IC50,Interleukin-8 [15],1.82 µM (active)
CC(=O)N1CCN(c2c(C)c(C)nc3cc(-c4cccc(F)c4)nn23)CC1,EC50,[16],5.95 µM (inactive)
same,EC50,[17],4.22 µM (active)
COc1ccc2c(c1)c1nc3ccccc3nc1n2Cc1ccc(OC(C)C)c(OC)c1,IC50,[18],34.7 µM (inactive)
same,IC50,[19],24.4 µM (inactive)
CCOC(=O)[C@]12Cc3cc(C)ccc3[C@H]1N(C1CCCCC1)C(=O)c1cc(OC)ccc12,IC50,[20],1.62 µM (active)
same,IC50,[21],4.3 µM (active)
same,IC50,Fatty acid synthase [22],6.32 µM (active)
same,IC50,Fatty acid synthase [23],5.45 µM (active)
same,IC50,Beta Lactamase,19.3 µM (inactive)
NC(Cc1ccc(C(F)(F)F)cc1)c1csc(Nc2ccc(C(=O)NCc3ccco3)cn2)n1 (stereo not given),EC50,Melanocortin receptor 4,> 9.91 µM (active)
same,EC50,[24],> 7.173 µM
NC1=NC[C@H](Cc2ccccc2)N1CCCCC1CCCCC1,IC50,cells,23.6 µM (active)
same,CC50,[25],7.59 µM (active)
same,EC50,[26],34.7 µM (active)
same,AC50,INS1,5.54 µM (active)
same,EC50,[27],> 160 µM (inactive)
same,IC50,[28],> 20 µM (inactive)
same,EC50,[29],2.37 µM (active)
